{"source": "patent US20200038383A1", "about": "“IMMEDIATE-RELEASE ABUSE DETERRENT CO[…] MEDICAMENTS FOR TREATING PAIN, ADD, ADHD AND OTHER SYNDROMES OR DISORDERS” (KEMPHARM, INC., priority 2016, published 2020)", "key": {"[1]": {"assay": "Water solubility / feasibility of intravenous administration"}, "[2]": {"assay": "Oral PK of hydrocodone conjugates in rats (plasma hydrocodone, hydromorphone, intact conjugate by LC-MS/MS)"}, "[3]": {"assay": "Chemical stability (hydrolysis) of hydrocodone conjugates in water", "format": "physicochemical", "details": "one hour", "method": "Exemplary conjugates of hydrocodone of the present technology and control test conjugates not of the present technology were tested for chemical stability under conditions similar to what a potential drug abuser may use to “extract” the active portion of the molecule, for example dissolved in water, hydrochloric acid or sodium bicarbonate either at ambient temperature or 100° C."}, "[4]": {"assay": "Hydrolysis to hydrocodone in 1 N HCl", "details": "1 hour"}, "Hydrolysis in 5% NaHCO3": {"assay": "Hydrolysis in 5% NaHCO3", "format": "physicochemical", "details": "one hour"}, "[5]": {"assay": "Intranasal PK of hydrocodone conjugates in rats", "details": "equivalent to 2 mg/kg hydrocodone freebase"}, "Oral PK in dogs": {"assay": "Oral PK in dogs", "details": "equivalent to 2 mg/kg freebase hydrocodone"}, "[6]": {"assay": "Tamper resistance study (extraction methods, HPLC)", "format": "physicochemical", "from_the_text": "Certain prodrug conjugates of the present technology were exposed to various commonly applied “extraction methods” to test for hydrolysis and/or decomposition of the prodrug."}, "[7]": {"assay": "Oral dose escalation study in rats", "details": "oral solutions, escalating dosages"}, "[8]": {"details": "equivalent to 2 mg/kg hydrocodone freebase"}, "[9]": {"details": "ambient temperature (about 20° C.)"}, "[10]": {"details": "equivalent to 2 mg/kg freebase hydrocodone"}}, "note": "Where no end group is shown, it is not given here."}
{"compound": "COc1ccc2c3c1OC1C(OC(=O)c4ccc5c(c4)OCO5)=CC[C@H]4[C@@H](C2)N(C)CC[C@]314", "note": "(stereo partly drawn) [Piperonylate-HC]", "values": [{"measurement": "solubility in water (intravenous administration at oral equivalent doses)", "setting": "[1]", "result": "hydrophobic"}]}
{"compound": "2-aminobenzoate-hydrocodone [Compound 2-Abz-HC]", "values": [{"measurement": "hydrocodone AUC, lower than Hydrocodone.BT", "setting": "[2]; [8]", "result": "approximately 35%"}, {"measurement": "hydrocodone Cmax, lower than Hydrocodone.BT", "setting": "[2]; [8]", "result": "~60", "unit": "%"}, {"measurement": "hydrocodone Tmax compared with Hydrocodone.BT", "setting": "[2]; [8]", "result": "approximately four times longer"}, {"measurement": "hydromorphone AUC, lower than Hydrocodone.BT", "setting": "[2]; [8]", "result": "approximately 25%"}, {"measurement": "hydromorphone Cmax, lower than Hydrocodone.BT", "setting": "[2]; [8]", "result": "~50", "unit": "%"}, {"measurement": "amount of conjugate hydrolyzed in water", "setting": "[3]; 100° C. oil bath", "result": 0, "unit": "%"}, {"measurement": "amount of conjugate hydrolyzed in water", "setting": "[3]; [9]", "result": 0, "unit": "%"}, {"measurement": "%-release in 1 N HCl", "setting": "[4]; 100° C. oil bath", "result": 16, "unit": "%"}, {"measurement": "%-release in 1 N HCl", "setting": "[4]; ambient (~20° C.)", "result": 0, "unit": "%"}]}
{"compound": "COc1ccc2c3c1OC1C(OC(=O)COCC(=O)O)=CC[C@H]4[C@@H](C2)N(C)CC[C@]314", "note": "(stereo partly drawn) [Diglycolate-HC, reference compound]", "values": [{"measurement": "solubility in water (intravenous administration at oral equivalent doses)", "setting": "[1]", "result": "water soluble"}]}
{"compound": "COc1ccc(C(=O)OC2=CC[C@H]3[C@H]4Cc5ccc(OC)c6c5[C@@]3(CCN4C)C2O6)cc1", "note": "(stereo partly drawn) [Compound 4-MeO-Bz-HC]", "values": [{"measurement": "solubility in water (intravenous administration at oral equivalent doses)", "setting": "[1]", "result": "hydrophobic"}, {"measurement": "amount of conjugate hydrolyzed in water", "setting": "[3]; 100° C. oil bath", "result": 0, "unit": "%"}, {"measurement": "amount of conjugate hydrolyzed in water", "setting": "[3]; [9]", "result": 0, "unit": "%"}]}
{"compound": "COc1ccc2c3c1OC1C(OC(=O)CCCCC(=O)O)=CC[C@H]4[C@@H](C2)N(C)CC[C@]314", "note": "(stereo partly drawn) [Adipate-HC]", "values": [{"measurement": "%-release in 5% NaHCO3", "setting": "Hydrolysis in 5% NaHCO3; 100° C. oil bath", "result": 100, "unit": "%"}, {"measurement": "%-release in 5% NaHCO3", "setting": "Hydrolysis in 5% NaHCO3; ambient (~20° C.)", "result": 3, "unit": "%"}, {"measurement": "solubility in water (intravenous administration at oral equivalent doses)", "setting": "[1]", "result": "water soluble"}, {"measurement": "AUC for hydromorphone released from Adipate-HC, higher than Bz-HC (sentence on hydrocodone plasma concentrations, FIG. 3)", "setting": "[5]", "result": "approximately 280%"}, {"measurement": "Cmax for hydromorphone released from Adipate-HC, higher than Bz-HC (sentence on hydrocodone plasma concentrations, FIG. 3)", "setting": "[5]", "result": "~60", "unit": "%"}, {"measurement": "hydromorphone AUC, higher than Bz-HC (FIG. 4)", "setting": "[5]", "result": "approximately 750%"}, {"measurement": "hydromorphone Cmax, higher than Bz-HC (FIG. 4)", "setting": "[5]", "result": "~660", "unit": "%"}, {"measurement": "%-release in 1 N HCl", "setting": "[4]; 100° C. oil bath", "result": 100, "unit": "%"}, {"measurement": "%-release in 1 N HCl", "setting": "[4]; ambient (~20° C.)", "result": 13, "unit": "%"}]}
{"compound": "COc1ccc2c3c1OC1C(OC(=O)c4ccccc4)=CCC4C(C2)N(C)CCC314", "note": "(stereo not drawn) [Bz-HC, benzhydrocodone]", "values": [{"measurement": "maximum plasma concentrations of hydromorphone versus dose", "setting": "[2]; doses above 2.00 mg/kg", "result": "did not significantly change"}, {"measurement": "exposures (AUC) to hydrocodone and hydromorphone versus dose", "setting": "[2]; doses between 0.25 and 4.00 mg/kg", "result": "fairly linear"}, {"measurement": "AUC for intact Bz-HC as % of the AUC for hydrocodone", "setting": "[2]; [10]", "result": "approximately 10%"}, {"measurement": "AUC for intact Bz-HC as % of the AUC for hydromorphone", "setting": "[2]; [10]", "result": "~3", "unit": "%"}, {"measurement": "hydrocodone Cmax compared with Hydrocodone.BT", "setting": "[2]; [8]", "result": "approximately equal"}, {"measurement": "AUC for intact Bz-HC as % of the AUC for hydrocodone", "setting": "Oral PK in dogs", "result": "approximately 10%"}, {"measurement": "solubility in water (intravenous administration at oral equivalent doses)", "setting": "[1]", "result": "hydrophobic"}, {"measurement": "water solubility (or solubility in PBS)", "setting": "[1]; 0.30 mg/kg close to the maximum intravenous dose in rats", "result": "poor"}]}
{"compound": "CC(=O)Oc1ccccc1C(=O)OC1=CCC2C3Cc4ccc(OC(=O)c5ccccc5OC(C)=O)c5c4C2(CCN3C)C1O5", "note": "(stereo not drawn) [3,6-di-aspirin-HM, 3,6,-di-aspirin-hydromorphone]", "values": [{"measurement": "stability under commonly applied extraction methods", "setting": "[6]", "result": "chemically stable"}, {"measurement": "Release of hydromorphone (as %-AUC by HPLC)", "setting": "[6]; 1 N HCl, ambient temperature, 30 min.", "result": 0, "unit": "%"}, {"measurement": "Release of hydromorphone (as %-AUC by HPLC)", "setting": "[6]; 1 N HCl, ambient temperature, 60 min.", "result": 0, "unit": "%"}, {"measurement": "Release of hydromorphone (as %-AUC by HPLC)", "setting": "[6]; 1 N NaOH, ambient temperature, 30 min.", "result": 1, "unit": "%"}, {"measurement": "Release of hydromorphone (as %-AUC by HPLC)", "setting": "[6]; 1 N NaOH, ambient temperature, 60 min.", "result": 1, "unit": "%"}, {"measurement": "Release of hydromorphone (as %-AUC by HPLC)", "setting": "[6]; 4 N NaOH, ambient temperature, 30 min.", "result": 1, "unit": "%"}, {"measurement": "Release of hydromorphone (as %-AUC by HPLC)", "setting": "[6]; 4 N NaOH, ambient temperature, 60 min.", "result": 6, "unit": "%"}, {"measurement": "Release of hydromorphone (as %-AUC by HPLC)", "setting": "[6]; 5% Acetic acid, ambient temperature, 30 min.", "result": 0, "unit": "%"}, {"measurement": "Release of hydromorphone (as %-AUC by HPLC)", "setting": "[6]; 5% Acetic acid, ambient temperature, 60 min.", "result": 0, "unit": "%"}, {"measurement": "Release of hydromorphone (as %-AUC by HPLC)", "setting": "[6]; Glacial acetic acid, ambient temperature, 30 min.", "result": 0, "unit": "%"}, {"measurement": "Release of hydromorphone (as %-AUC by HPLC)", "setting": "[6]; Glacial acetic acid, ambient temperature, 60 min.", "result": 0, "unit": "%"}, {"measurement": "Release of hydromorphone (as %-AUC by HPLC)", "setting": "[6]; Sat. NaHCO3, ambient temperature, 30 min.", "result": 0, "unit": "%"}, {"measurement": "Release of hydromorphone (as %-AUC by HPLC)", "setting": "[6]; Sat. NaHCO3, ambient temperature, 60 min.", "result": 0, "unit": "%"}, {"measurement": "Release of hydromorphone (as %-AUC by HPLC)", "setting": "[6]; Water, ambient temperature, 30 min.", "result": 0, "unit": "%"}, {"measurement": "Release of hydromorphone (as %-AUC by HPLC)", "setting": "[6]; Water, ambient temperature, 60 min.", "result": 0, "unit": "%"}, {"measurement": "exposure (AUC) to hydromorphone at doses above the therapeutic level", "setting": "[7]", "result": "reached a plateau"}]}
{"compound": "Tyr-Tyr-Phe-Phe-Ile-Hydrocodone (YYFFI-hydrocodone) [YYFFI-HC]", "values": [{"measurement": "%-release in 5% NaHCO3", "setting": "Hydrolysis in 5% NaHCO3; 100° C. oil bath", "result": 70, "unit": "%"}, {"measurement": "%-release in 5% NaHCO3", "setting": "Hydrolysis in 5% NaHCO3; ambient (~20° C.)", "result": 0, "unit": "%"}]}
{"compound": "COc1ccc(C(=O)OC2=CC[C@H]3[C@H]4Cc5ccc(OC)c6c5[C@@]3(CCN4C)C2O6)cc1O", "note": "(stereo partly drawn) [3-OH-4-MeO-Bz-HC]", "values": [{"measurement": "%-release in 5% NaHCO3", "setting": "Hydrolysis in 5% NaHCO3; 100° C. oil bath", "result": 36, "unit": "%"}, {"measurement": "%-release in 5% NaHCO3", "setting": "Hydrolysis in 5% NaHCO3; ambient (~20° C.)", "result": 0, "unit": "%"}, {"measurement": "solubility in water (intravenous administration at oral equivalent doses)", "setting": "[1]", "result": "hydrophobic"}, {"measurement": "%-release in 1 N HCl", "setting": "[4]; 100° C. oil bath", "result": 35, "unit": "%"}, {"measurement": "%-release in 1 N HCl", "setting": "[4]; ambient (~20° C.)", "result": 0, "unit": "%"}]}
